Assay results: ChEMBL document CHEMBL4665802, “Design, Synthesis, and Structure-Activity Relationships of Indoline-Based Kelch-like ECH-Associated Protein 1-Nuclear Factor (Erythroid-Derived 2)-Like 2 (Keap1-Nrf2) Protein-Protein Interaction Inhibitors” (J Med Chem, 2020)
The source made the active and inactive calls. No cut-off for these calls is given here.

Key:
[1] = tested on: H9c2; assay: Antioxidant activity against LPS-induced injury in rat H9c2 cells assessed as increase in GSH/GSSG ratio at 0.1 to 10 uM pretreated for 12 hrs followed by LPS addition measured after 12 hrs; assay type: functional, cell-based; conditions: dose microM 0.1-10, time 24.0 hrs
[2] = molecular target: CYP2D6 (Homo sapiens, UniProt P10635); assay: Inhibition of CYP2D6 (unknown origin) at 10 uM using promethazine as substrate preincubated for 5 mins followed by NADPH addition and measured after 20 mins by LC-MS/MS analysis relative to control; assay type: ADME; conditions: probe promethazine
[3] = Apparent volume of distribution in rat at 5 mg/kg, iv by LC-MS/MS analysis; assay type: ADME, organism-based; conditions: in vivo, read-out: Vz
[4] = Permeability of the compound at pH 7.4 incubated for 4 hrs by PAMPA; assay type: ADME; conditions: read-out: permeability
[5] = molecular target: T1, KEAP1/NRF2 (Rattus norvegicus) (UniProt O54968+P57790); assay: Inhibition of Keap1-Nrf2 protein-protein interaction in rat H9c2 cells assessed as upregulation of GCLM mRNA expression incubated for 12 hrs by Trizol reagent based qRT-PCR analysis; assay type: cell-based; conditions: dose microM 0.1-10, time 12.0 hrs
[6] = tested on: H9c2; assay: Upregulation of Nrf2 protein levels in rat H9c2 cells incubated for 12 hrs by Western blot analysis; assay type: functional, cell-based; conditions: dose microM 0.1-10, time 12.0 hrs
[7] = molecular target: CYP3A4 (Homo sapiens, UniProt P08684); assay: Inhibition of CYP3A4 (unknown origin) at 10 uM using […] as substrate preincubated for 5 mins followed by NADPH addition and measured after 20 mins by LC-MS/MS analysis relative to control; assay type: ADME
[8] = Apparent clearance in rat at 5 mg/kg, iv by LC-MS/MS analysis; assay type: ADME, organism-based; conditions: in vivo
[9] = tested on: H9c2; assay: Cytotoxicity against rat H9c2 cells assessed as reduction in cell viability up to 100 uM incubated for 24 hrs by MTT assay; assay type: cell-based; conditions: h9c2, 24 h
[10] = tested on: H9c2; assay: Upregulation of Nrf2 protein levels in rat H9c2 cells at 10 uM incubated up to 24 hrs by Western blot; assay type: functional, cell-based; conditions: time hrs <=24
[11] = tested on: Mus musculus; assay: Cardioprotective activity in LPS-stimulated sepsis in C57BL/6 mouse assessed as reduction in heart tissue inflammation at 10 mg/kg, ip qd administered for 3 days prior to LPS stimulation and measured after 12 hrs by hematoxylin and eosin staining based microscopy; assay type: functional, organism-based; conditions: time 3.5 day
[12] = tested on: Mus musculus; assay: Antiinflammatory activity in LPS-stimulated sepsis in C57BL/6 mouse assessed as decrease in TNFalpha levels at 10 mg/kg, ip qd administered for 3 days prior to LPS stimulation and measured after 12 hrs by ELISA; assay type: functional, organism-based; conditions: time 3.5 day
[13] = tested on: Mus musculus; assay: Antiinflammatory activity in LPS-stimulated sepsis in C57BL/6 mouse assessed as decrease in IL-1beta levels at 10 mg/kg, ip qd administered for 3 days prior to LPS stimulation and measured after 12 hrs by ELISA; assay type: functional, organism-based; conditions: time 3.5 day
[14] = tested on: Mus musculus; assay: Upregulation of NQO1 expression in LPS-stimulated C57BL/6 mouse model of sepsis at 10 to 40 mg/kg, ip qd administered for 3 days prior to LPS stimulation and measured after 12 hrs by Western blot analysis; assay type: functional, organism-based; conditions: dose mg/kg 10-40, time 3.5 day
[15] = molecular target: CYP2C19 (Homo sapiens, UniProt P33261); assay: Inhibition of CYP2C19 (unknown origin) at 10 uM using omeprazole as substrate preincubated for 5 mins followed by NADPH addition and measured after 20 mins by LC-MS/MS analysis relative to control; assay type: ADME; conditions: probe omeprazole
[16] = tested on: Mus musculus; assay: Antiinflammatory activity in LPS-stimulated sepsis in C57BL/6 mouse assessed as decrease in IL-6 levels at 10 mg/kg, ip qd administered for 3 days prior to LPS stimulation and measured after 12 hrs by ELISA; assay type: functional, organism-based; conditions: time 3.5 day
[17] = tested on: Mus musculus; assay: Upregulation of Nrf2 protein levels in LPS-stimulated C57BL/6 mouse model at 10 to 40 mg/kg, ip qd administered for 3 days prior to LPS stimulation and measured after 12 hrs by Western blot analysis; assay type: functional, organism-based; conditions: dose mg/kg 10-40, time 3.5 day
[18] = Cmax in rat at 5 mg/kg, iv by LC-MS/MS analysis; assay type: ADME, organism-based; design: route intravenous, dose 5 mg/kg; conditions: in vivo
[19] = molecular target: T1, KEAP1/NRF2 (Rattus norvegicus); assay: Inhibition of Keap1-Nrf2 protein-protein interaction in rat H9c2 cells assessed as upregulation of NQO1 mRNA expression incubated for 12 hrs by Trizol reagent based qRT-PCR analysis; assay type: cell-based; conditions: dose microM 0.1-10, time 12.0 hrs
[20] = molecular target: T1, KEAP1/NRF2 (Rattus norvegicus); assay: Inhibition of Keap1-Nrf2 protein-protein interaction in rat H9c2 cells assessed as upregulation of GCLM expression at 10 uM incubated up to 24 hrs by Western blot; assay type: cell-based; conditions: time hrs <=24
[21] = Half-life in rat at 5 mg/kg, iv by LC-MS/MS analysis; assay type: ADME, organism-based; conditions: in vivo
[22] = molecular target: T1, KEAP1/NRF2 (Rattus norvegicus); assay: Inhibition of Keap1-Nrf2 protein-protein interaction in rat H9c2 cells assessed as upregulation of HO1 expression incubated for 12 hrs by Western blot analysis; assay type: cell-based; conditions: dose microM 0.1-10, time 12.0 hrs
[23] = Intrinsic clearance in human liver microsome at 1 uM preincubated for 5 mins followed by NADPH addition and measured after 45 mins by LC-MS/MS analysis; assay type: ADME; conditions: microsomes, 0.75 h
[24] = tested on: H9c2; assay: Antiinflammatory activity against LPS-induced sepsis in rat H9c2 cells assessed as decrease in secretion of IL-6 at 1 to 10 uM pretreated for 12 hrs followed by LPS addition measured after 12 hrs by sandwich ELISA; assay type: functional, cell-based; conditions: dose microM 1-10, time 24.0 hrs
[25] = tested on: H9c2; assay: Upregulation of Nrf2 mRNA expression in rat H9c2 cells at 10 uM incubated for 4 to 24 hrs by Trizol reagent based qRT-PCR analysis; assay type: functional, cell-based; conditions: time hrs 4-24
[26] = molecular target: T1, KEAP1/NRF2 (Rattus norvegicus); assay: Inhibition of Keap1-Nrf2 protein-protein interaction in rat H9c2 cells assessed as upregulation of NQO1 expression at 10 uM incubated up to 24 hrs by Western blot; assay type: cell-based; conditions: time hrs <=24

CYP3A4, sequence (P08684 whole entry): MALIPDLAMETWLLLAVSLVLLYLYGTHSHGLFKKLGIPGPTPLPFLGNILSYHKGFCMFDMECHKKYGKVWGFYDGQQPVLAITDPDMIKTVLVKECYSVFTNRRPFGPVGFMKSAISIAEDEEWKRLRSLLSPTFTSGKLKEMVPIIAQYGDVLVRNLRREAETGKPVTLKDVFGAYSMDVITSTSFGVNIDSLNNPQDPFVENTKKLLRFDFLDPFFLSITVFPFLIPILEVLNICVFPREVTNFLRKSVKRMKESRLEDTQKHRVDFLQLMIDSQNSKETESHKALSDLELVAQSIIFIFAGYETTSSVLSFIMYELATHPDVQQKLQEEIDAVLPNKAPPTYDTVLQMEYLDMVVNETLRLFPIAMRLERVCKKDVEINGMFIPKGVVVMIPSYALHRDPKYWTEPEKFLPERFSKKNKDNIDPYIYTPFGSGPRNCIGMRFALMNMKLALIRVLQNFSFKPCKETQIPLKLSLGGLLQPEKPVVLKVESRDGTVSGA
CYP2D6, sequence (P10635 whole entry): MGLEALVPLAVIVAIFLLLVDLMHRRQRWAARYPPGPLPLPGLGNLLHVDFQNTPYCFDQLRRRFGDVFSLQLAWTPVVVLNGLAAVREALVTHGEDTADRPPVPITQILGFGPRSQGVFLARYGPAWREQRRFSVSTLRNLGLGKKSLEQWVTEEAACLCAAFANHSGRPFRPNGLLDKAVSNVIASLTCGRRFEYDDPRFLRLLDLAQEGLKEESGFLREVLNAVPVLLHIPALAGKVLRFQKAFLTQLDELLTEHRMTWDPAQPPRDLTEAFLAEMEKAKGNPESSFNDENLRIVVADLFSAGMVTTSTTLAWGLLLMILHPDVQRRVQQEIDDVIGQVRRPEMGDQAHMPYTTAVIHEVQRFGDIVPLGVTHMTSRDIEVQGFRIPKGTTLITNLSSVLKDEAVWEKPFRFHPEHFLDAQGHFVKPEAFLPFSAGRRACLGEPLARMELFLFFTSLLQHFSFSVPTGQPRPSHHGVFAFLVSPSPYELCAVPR
CYP2C19, sequence (P33261 whole entry): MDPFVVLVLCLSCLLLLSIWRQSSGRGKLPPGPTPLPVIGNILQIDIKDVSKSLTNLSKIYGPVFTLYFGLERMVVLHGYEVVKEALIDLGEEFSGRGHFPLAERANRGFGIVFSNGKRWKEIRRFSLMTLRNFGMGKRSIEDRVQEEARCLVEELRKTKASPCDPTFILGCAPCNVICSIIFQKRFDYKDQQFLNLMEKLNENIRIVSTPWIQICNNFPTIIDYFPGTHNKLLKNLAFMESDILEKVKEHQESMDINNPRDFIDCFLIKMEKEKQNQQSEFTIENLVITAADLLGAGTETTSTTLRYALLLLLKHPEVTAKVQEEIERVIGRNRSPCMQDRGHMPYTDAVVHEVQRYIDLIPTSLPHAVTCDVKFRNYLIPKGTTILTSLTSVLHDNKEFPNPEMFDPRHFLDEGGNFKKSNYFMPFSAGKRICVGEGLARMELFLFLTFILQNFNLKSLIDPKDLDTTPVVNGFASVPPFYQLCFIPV

For `COc1ccc(S(=O)(=O)NC(=O)CN(c2cccc3c2CCN3C(C(=O)NS(=O)(=O)c2ccc(C)cc2OC)c2cccc(OC)c2)S(=O)(=O)c2ccc(OC)cc2)cc1` (stereo unspecified), the Activity [1] was “Active”, the inhibition at 20 min, 10 µM [2] was 19.9% and the Vd [3] was 0.64 L/kg. For the same compound, the Papp at 4 h [4] was 5.27 ×10⁻⁶ cm/s, the inhibition [5] was “Dose-dependent effect” and the Activity [6] was “Dose-dependent effect”. For the same compound, the inhibition at 20 min, 10 µM [7] was 46.9%, the clearance [8] was 1.83 mL/min/kg and the Activity [9] was “Non-Toxic”. For the same compound, the Activity [10] was “Active”, the Activity [11] was “Active” and the Activity [12] was “Active”. The Activity [13] was “Active”, the Activity [14] was “Active” and the inhibition at 20 min, 10 µM [15] was 19.8%. For the same compound, the Activity [16] was “Active”, the Activity [17] was “Active” and the Cmax [18] was 78.2 µg/mL. The inhibition [19] was “Dose-dependent effect”, the inhibition [20] was “Active” and the half-life [21] was 4.02 h. The inhibition [22] was “Dose-dependent effect”, the CLH [23] was 11.4 mL/min/kg and the Activity [24] was “Active”. The Activity [25] was “Active” and the inhibition [26] was “Active”.
